The target in series [1] is T1, ratAChE (Rattus norvegicus, UniProt P37136).
T1 sequence (P37136 32-614): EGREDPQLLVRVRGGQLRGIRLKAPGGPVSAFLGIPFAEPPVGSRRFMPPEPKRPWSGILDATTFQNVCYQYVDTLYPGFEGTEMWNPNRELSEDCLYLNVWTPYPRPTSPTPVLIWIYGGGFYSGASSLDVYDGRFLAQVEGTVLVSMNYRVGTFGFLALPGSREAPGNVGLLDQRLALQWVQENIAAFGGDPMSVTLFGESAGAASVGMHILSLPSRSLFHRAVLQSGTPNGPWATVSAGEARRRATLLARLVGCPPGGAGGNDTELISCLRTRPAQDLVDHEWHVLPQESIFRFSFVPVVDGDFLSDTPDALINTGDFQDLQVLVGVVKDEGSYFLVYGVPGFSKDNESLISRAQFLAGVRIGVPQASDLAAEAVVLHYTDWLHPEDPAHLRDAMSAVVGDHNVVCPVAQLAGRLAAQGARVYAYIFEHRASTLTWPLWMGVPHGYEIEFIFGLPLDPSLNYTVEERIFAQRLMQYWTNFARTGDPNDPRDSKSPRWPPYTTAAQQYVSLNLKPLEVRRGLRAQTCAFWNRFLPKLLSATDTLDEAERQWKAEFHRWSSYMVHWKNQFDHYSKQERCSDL
The series is described as follows: Ellman's method, AChE from rat cortex homogenate. The series is classed as biochemical. Particulars: for SI = Selectivity index = IC50 (BuChE)/IC50 (AChE): ratBuChE over rat AChE. In general terms: In Ellman's method for cholinesterases, released thiocholine reacts with DTNB.

In series [2] the target is eeAChE (Electrophorus electricus, UniProt O42275). The series is described as follows: Ellman's method, electric eel AChE. Type of series: biochemical.
Sequence of eeAChE (O42275 24-633): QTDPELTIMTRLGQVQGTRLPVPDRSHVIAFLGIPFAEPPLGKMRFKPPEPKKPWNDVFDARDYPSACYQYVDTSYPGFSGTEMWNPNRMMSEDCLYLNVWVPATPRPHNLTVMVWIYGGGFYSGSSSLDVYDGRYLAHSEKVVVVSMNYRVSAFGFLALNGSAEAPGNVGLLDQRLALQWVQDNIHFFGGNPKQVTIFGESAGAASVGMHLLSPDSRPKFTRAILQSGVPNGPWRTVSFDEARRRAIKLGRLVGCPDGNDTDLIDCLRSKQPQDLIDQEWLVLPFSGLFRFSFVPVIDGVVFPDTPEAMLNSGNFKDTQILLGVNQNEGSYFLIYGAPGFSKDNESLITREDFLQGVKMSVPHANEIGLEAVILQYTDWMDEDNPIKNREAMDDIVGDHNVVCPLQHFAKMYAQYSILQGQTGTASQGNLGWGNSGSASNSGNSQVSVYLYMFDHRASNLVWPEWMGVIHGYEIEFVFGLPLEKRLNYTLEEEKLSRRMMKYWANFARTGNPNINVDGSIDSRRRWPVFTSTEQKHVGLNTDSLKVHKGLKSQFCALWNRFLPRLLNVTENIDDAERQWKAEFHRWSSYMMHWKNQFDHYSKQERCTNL
The target of series [3] is ratBuChE (Rattus norvegicus, UniProt Q9JKC1). The experiment in a line: Ellman's method, BuChE from rat serum. The series is classed as biochemical.
Sequence of ratBuChE (Q9JKC1 24-597): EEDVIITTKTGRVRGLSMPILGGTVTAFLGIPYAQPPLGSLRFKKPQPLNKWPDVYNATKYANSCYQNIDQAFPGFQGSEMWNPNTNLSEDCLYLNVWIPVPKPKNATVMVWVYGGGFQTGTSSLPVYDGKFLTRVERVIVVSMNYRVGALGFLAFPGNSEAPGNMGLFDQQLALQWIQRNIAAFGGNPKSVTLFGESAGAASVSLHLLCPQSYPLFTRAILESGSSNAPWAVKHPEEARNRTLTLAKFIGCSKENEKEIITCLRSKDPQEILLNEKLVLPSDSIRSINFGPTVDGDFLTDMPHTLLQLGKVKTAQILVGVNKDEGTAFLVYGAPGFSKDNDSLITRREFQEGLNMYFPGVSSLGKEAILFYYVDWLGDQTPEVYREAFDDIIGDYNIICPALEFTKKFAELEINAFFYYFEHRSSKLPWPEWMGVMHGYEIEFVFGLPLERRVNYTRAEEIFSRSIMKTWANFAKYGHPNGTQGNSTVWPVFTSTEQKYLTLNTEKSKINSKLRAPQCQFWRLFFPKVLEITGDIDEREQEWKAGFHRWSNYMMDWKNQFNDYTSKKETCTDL
Series [4] in a line: Oxygen Radicals Absorbance Capacity by Fluorescence. Particulars: for ORAC: Trolox as reference.
Series [5] deals with T2, Aβ1–42 (Homo sapiens, UniProt P05067). The experiment in a line: Inhibition of self-induced Aβ1–42 aggregation. The series is classed as biochemical. Particulars: read-out: Inhibition of Aβ1–42 aggregation (%) Self-induced, 25 μM; ThT assay.
T2 sequence (P05067 672-713): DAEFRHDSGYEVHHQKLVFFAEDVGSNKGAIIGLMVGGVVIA
Series [6] addresses T2, Aβ1–42. The series is described as follows: Inhibition of Cu2+-induced Aβ1–42 aggregation. Type of series: biochemical. Particulars: read-out: Inhibition of Aβ1–42 aggregation (%) Cu^2+-induced.
Series [7] concerns the target T3, Aβ1–42 fibrils (Homo sapiens, UniProt P05067). The series is described as follows: Disaggregation of self-induced Aβ1–42 aggregation. The series is classed as biochemical. Particulars: 25 μM; ThT assay.
Series [8] deals with T3, Aβ1–42 fibrils. The series is described as follows: Disaggregation of Cu2+-induced Aβ1–42 aggregation. Type of series: biochemical. Particulars: 25 μM; ThT assay.
Series [9] addresses T4, huMAO-B (Homo sapiens, UniProt P27338).
T4 sequence (P27338 1-520): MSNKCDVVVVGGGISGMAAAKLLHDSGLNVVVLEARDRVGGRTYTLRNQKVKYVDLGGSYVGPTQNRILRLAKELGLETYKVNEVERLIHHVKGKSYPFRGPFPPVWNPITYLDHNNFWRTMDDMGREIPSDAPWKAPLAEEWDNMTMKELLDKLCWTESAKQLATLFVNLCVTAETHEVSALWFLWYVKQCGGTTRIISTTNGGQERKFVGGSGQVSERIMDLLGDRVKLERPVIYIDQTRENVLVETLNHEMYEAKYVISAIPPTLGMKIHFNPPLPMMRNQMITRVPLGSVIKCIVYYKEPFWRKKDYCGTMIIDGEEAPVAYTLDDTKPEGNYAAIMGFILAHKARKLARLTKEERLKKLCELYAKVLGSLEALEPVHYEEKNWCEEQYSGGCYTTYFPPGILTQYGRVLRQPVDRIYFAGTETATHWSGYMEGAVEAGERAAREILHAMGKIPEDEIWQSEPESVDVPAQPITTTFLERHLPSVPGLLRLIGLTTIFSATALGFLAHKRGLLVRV
The experiment in a line: biochemical. Particulars: for inhibition at 10 µM: read-out: MAO-B percent inhibition rate.

Series [10] has as its target T5, huMAO-A (Homo sapiens, UniProt P21397).
T5 sequence (P21397 1-527): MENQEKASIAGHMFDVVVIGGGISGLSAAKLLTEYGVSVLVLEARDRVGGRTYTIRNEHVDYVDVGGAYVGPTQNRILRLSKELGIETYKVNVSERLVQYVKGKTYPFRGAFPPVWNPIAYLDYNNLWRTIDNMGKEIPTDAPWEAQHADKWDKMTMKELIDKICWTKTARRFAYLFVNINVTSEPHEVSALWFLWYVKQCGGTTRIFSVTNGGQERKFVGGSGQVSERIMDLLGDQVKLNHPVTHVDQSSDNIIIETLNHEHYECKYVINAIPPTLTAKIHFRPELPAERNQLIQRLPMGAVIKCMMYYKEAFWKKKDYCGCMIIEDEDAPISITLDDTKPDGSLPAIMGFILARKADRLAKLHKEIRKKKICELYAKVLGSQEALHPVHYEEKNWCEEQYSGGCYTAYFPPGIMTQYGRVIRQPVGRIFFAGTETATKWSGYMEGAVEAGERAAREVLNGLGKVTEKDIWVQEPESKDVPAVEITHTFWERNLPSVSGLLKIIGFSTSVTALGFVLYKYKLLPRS
The series is described as follows: huMAO-A inhibition, fluorescence method. The series is classed as biochemical. Particulars: for inhibition at 10 µM: read-out: MAO-A percent inhibition rate.

Series [11] can be described thus: Metal chelation by UV-vis spectrometry and molar ratio method. The series is classed as physicochemical. Particulars: 37.5 μM.
Series [12] deals with PC12 cells. The series is described as follows: Neuroprotection against H2O2-induced PC12 cell injury, LDH assay. Particulars: PC12, 100 µM H2O2, compound 100 µM; H2O2 alone 712.7, vehicle 602.3. Type of series: cell-based.
Setting [13] is: peak of compound alone: 9d 362 nm, 17f 350 nm.

Data on seven compounds can be found in PMC8667902 (Journal of Enzyme Inhibition and Medicinal Chemistry, 2021).

Structures are written as SMILES.

T3 sequence (P05067 672-713): as the sequence (P05067 672-713) above

As usually defined, the IC50 is the concentration that gives 50% inhibition. High values mean lower potency, low ones higher potency. What is called inhibition is how much of the control response was suppressed. Take `CCN(CCCCOc1ccc(/C=C/C(=O)c2c(O)cc(OC)c(OC)c2OC)cc1)Cc1ccccc1OC` [Compound 9d, (E)-3-(4-(4-(ethyl(2-methoxybenzyl)amino)butoxy)phenyl)-1-(6-hydroxy-2,3,4-trimethoxyphenyl)prop-2-en-1-one]: the IC50 in series [1] is 0.32 ± 0.02 µM; in series [2], 1.2 ± 0.01 µM; in [3] it was 451 ± 1.68 µM; in series [9], 12.3 ± 0.08 µM; in series [10], 38.2 ± 0.63 µM. Further, the “SI = Selectivity index = IC50 (BuChE)/IC50 (AChE)” value in series [1] stood at 1409.4. Besides, the ORAC in [4] is reported as 1.01 ± 0.2 μM of Trolox equivalent/μM of compounds. For the same compound, the ORAC-FL value in series [4] (Trolox equivalents) is 0.96 eq. The inhibition at 25 µM in series [5] is 72.7 ± 0.02%; in series [6] it was 72.4 ± 0.01%. In addition, the “Disaggregation of Aβ1–42 aggregation (%) Self-induced” value (shortened to “Disaggregation … (%) Self-induced”) in series [7] came to 33.0 ± 0.08%. For the same compound, the “Disaggregation of Aβ1–42 aggregation (%) Cu^2+-induced” value (“Disaggregation … (%) Cu^2+-induced” below) in [8] is 63.2 ± 0.63%. Further, the “SI = selectivity index = IC50 (hMAO-A)/IC50 (hMAO-B)” value in series [9] is 3.1. In addition, in series [11], the “shift of characteristic UV peak after adding FeSO4 and ZnCl2” value is given as “no obvious shift”. For the same compound, in [11] (setting [13]), the “characteristic UV peak after adding AlCl3 (red shift)” value was 376 nm. For the same compound, the “characteristic UV peak after adding CuCl2 (red shift)” value in series [11] (setting [13]) amounted to 444 nm.
For `COc1ccccc1CN(C)CCCOc1ccc(/C=C/C(=O)c2c(O)cc(OC)c(O)c2OC)cc1` [Compound 17a, (E)-1-(3,6-dihydroxy-2,4-dimethoxyphenyl)-3-(4-(3-((2-methoxybenzyl)(methyl)amino)propoxy)phenyl)prop-2-en-1-one], the IC50 in series [1] is 3.45 ± 0.03 µM; in [2] it was 2.3 ± 0.01 µM; in [3] it was 326 ± 10.7 µM. The “SI = Selectivity index = IC50 (BuChE)/IC50 (AChE)” value in series [1] amounted to 94.5. For the same compound, in [4], the ORAC was 3.1 ± 0.02 μM of Trolox equivalent/μM of compounds. Further, the inhibition at 25 µM in series [5] is 67.4 ± 0.04%; in series [6] it was 91.1 ± 0.01%. Further, the “Disaggregation … (%) Self-induced” value in [7] is recorded as 29.9 ± 0.03%. Moreover, the “Disaggregation … (%) Cu^2+-induced” value in series [8] is listed as 84.6 ± 0.03%. The values for the inhibition at 10 µM in series [9] and in series [10] were 4.4% and 18.2%, respectively.
`CCN(CCCOc1ccc(/C=C/C(=O)c2c(O)cc(OC)c(O)c2OC)cc1)Cc1ccccc1OC` [Compound 17b, (E)-1-(3,6-dihydroxy-2,4-dimethoxyphenyl)-3-(4-(3-(ethyl(2-methoxybenzyl)amino)propoxy)phenyl)prop-2-en-1-one]: the IC50 in series [1] came to 0.73 ± 0.01 µM; in series [2], 3.16 ± 0.02 µM; in series [3] it was 155 ± 5.8 µM. For the same compound, the “SI = Selectivity index = IC50 (BuChE)/IC50 (AChE)” value in series [1] came out at 212.3. Also, in [4], the ORAC was 2.9 ± 0.02 μM of Trolox equivalent/μM of compounds. Moreover, the inhibition at 25 µM in [5] stood at 82.1 ± 0.01%; in series [6], 90.2 ± 0.02%. Further, in [7], the “Disaggregation … (%) Self-induced” value was 60.2 ± 0.03%. For the same compound, in [8], the “Disaggregation … (%) Cu^2+-induced” value is given as 82.8 ± 0.03%. The inhibition at 10 µM in series [9] was found to be 2.1%; in [10], 14.6%.
Consider `COc1ccccc1CN(C)CCCCOc1ccc(/C=C/C(=O)c2c(O)cc(OC)c(O)c2OC)cc1` [Compound 17c, (E)-1-(3,6-dihydroxy-2,4-dimethoxyphenyl)-3-(4-(4-((2-methoxybenzyl)(methyl)amino)butoxy)phenyl)prop-2-en-1-one], for which the IC50 in [1] was 1.63 ± 0.02 µM; in series [2] it was 3.74 ± 0.03 µM; in series [3] it was > 500 µM; in [10] it was 18.3 ± 0.15 µM. Besides, in series [1], the “SI = Selectivity index = IC50 (BuChE)/IC50 (AChE)” value was >306.7. In addition, in [4], the ORAC is on record as 2.8 ± 0.01 μM of Trolox equivalent/μM of compounds. The inhibition at 25 µM was 68.4 ± 0.02% in [5] and 92.5 ± 0.03% in series [6]. Besides, the “Disaggregation … (%) Self-induced” value in [7] turned out to be 75.9 ± 0.03%. In series [8], the “Disaggregation … (%) Cu^2+-induced” value amounted to 79.1 ± 0.15%. The inhibition at 10 µM in series [9] was 11%.
On to `CCN(CCCCOc1ccc(/C=C/C(=O)c2c(O)cc(OC)c(O)c2OC)cc1)Cc1ccccc1OC` [Compound 17d, (E)-1-(3,6-dihydroxy-2,4-dimethoxyphenyl)-3-(4-(4-(ethyl(2-methoxybenzyl)amino)butoxy)phenyl)prop-2-en-1-one], for which the IC50 is 0.58 ± 0.01 µM in series [1], 3.68 ± 0.02 µM in [2], 406 ± 15.2 µM in series [3] and 15.1 ± 0.16 µM in series [9]. Also, the “SI = Selectivity index = IC50 (BuChE)/IC50 (AChE)” value in series [1] was 700. Moreover, the ORAC in series [4] is 3.1 ± 0.01 μM of Trolox equivalent/μM of compounds. Also, the inhibition at 25 µM in [5] came to 73.8 ± 0.01%; in series [6], 91.7 ± 0.02%. The “Disaggregation … (%) Self-induced” value in series [7] stood at 45.7 ± 0.16%. Also, the “Disaggregation … (%) Cu^2+-induced” value in series [8] was 79.8 ± 0.03%. Also, the inhibition at 10 µM in series [10] was 16.7%.
For the compound `COc1ccccc1CN(C)CCCCCCOc1ccc(/C=C/C(=O)c2c(O)cc(OC)c(O)c2OC)cc1` [Compound 17e, (E)-1-(3,6-dihydroxy-2,4-dimethoxyphenyl)-3-(4-((6-((2-methoxybenzyl)(methyl)amino)hexyl)oxy)phenyl)prop-2-en-1-one], the IC50 in series [1] was 1.4 ± 0.02 µM; in [2] it was 2.16 ± 0.01 µM; in series [3], > 500 µM; in series [9] it was 12.8 ± 0.31 µM. For the same compound, the “SI = Selectivity index = IC50 (BuChE)/IC50 (AChE)” value in series [1] is given as >357.1. In addition, the ORAC in series [4] is recorded as 3.4 ± 0.02 μM of Trolox equivalent/μM of compounds. Moreover, the inhibition at 25 µM in series [5] came out at 65.7 ± 0.03%; in [6], 96.2 ± 0.02%. Besides, the “Disaggregation … (%) Self-induced” value in series [7] came to 74.8 ± 0.31%. In addition, the “Disaggregation … (%) Cu^2+-induced” value in series [8] came to 83.7 ± 0.03%. Further, the inhibition at 10 µM in series [10] was determined as 17.9%.
For `Cc1c(C)c2c(c(C)c1O)CC[C@@](C)(CCC[C@H](C)CCC[C@H](C)CCCC(C)C)O2` [Vitamin E, α-tocopherol, reference compound], the ORAC in series [4] is reported as 2.6 ± 0.06 μM of Trolox equivalent/μM of compounds. In series [12], this compound returned an LDH vitality of 654.7.
